According to paper PMC6509125, “The selective disruption of presynaptic JNK2/STX1a interaction reduces NMDA receptor-dependent glutamate release” (Scientific Reports, 2019):

How the values were obtained:
Format in all cases: cell-based, mouse
[1] = tested on: presynaptic NMDA receptors; test: mEPSC whole cell patch clamp recordings in entorhinal cortex slices; conditions: TTX 1 µM, PTX 100 µM, MK-801 10 µM in pipette; n = 8
p46-JNK = p46-JNK phosphorylation, western blot of cortical synaptosomes; conditions: NMDA 100 µM + glycine 1 µM 10 min or KCl 8 mM 90 s (Fig. 1A); n = 6
STX1a (Ser14 p-STX1a) = test: STX1a Ser14 phosphorylation, western blot of cortical synaptosomes; conditions: mean ± s.e.m.; for Ser14 p-STX1a levels vs. control = 1, stimulus alone: NMDA 100 µM + glycine 1 µM 10 min or KCl 8 mM 90 s (Fig. 1B), n = 6
p54-JNK = p54-JNK phosphorylation, western blot of cortical synaptosomes; conditions: mean ± s.e.m.; for p54-JNK phosphorylation vs. control, stimulus alone: NMDA 100 µM + glycine 1 µM 10 min or KCl 8 mM 90 s (Fig. 1A), n = 6
[2] = tested on: NMDA-evoked exocytosis, cortical synaptosomes; test: Synaptic vesicle release, FM1-43 destaining in cortical synaptosomes; conditions: NMDA 100 µM + glycine 1 µM, 0 µM JGRi1; mean ± s.e.m., n = 5
SNARE complex = SNARE complex formation assay in cortical synaptosomes; conditions: NMDA 100 µM + glycine 1 µM 10 min alone; mean ± s.e.m., n = 4

SMILES	mEPSC amplitude, vehicle vs. D-AP5 [1]	mEPSC inter-event interval (iei), vehicle vs. D-AP5 [1]	p46-JNK phosphorylation, stimulus alone (p46-JNK)	Ser14 p-STX1a levels vs. control = 1, stimulus alone (STX1a (Ser14 p-STX1a))	p54-JNK phosphorylation vs. control, stimulus alone (p54-JNK)	STX1a phosphorylation vs. control = 1, stimulus alone (STX1a (Ser14 p-STX1a); NMDA 100 µM + glycine 1 µM 10 min alone (Fig. 4B), n = 7)	NMDA-induced release of fluorescent dye FM1-43, stimulus alone [2]	p54-JNK phosphorylation vs. control = 1, stimulus alone (p54-JNK; NMDA 100 µM + glycine 1 µM 10 min alone (Fig. 4A), n = 7)	SNARE complex formation vs. control = 1, stimulus alone (SNARE complex)
NC(CCCP(=O)(O)O)C(=O)O [D-AP5]	unaffected	induced an increase of iei	–	–	–	–	–	–	–
[Cl-].[K+] [KCl]	–	–	unchanged	1.22 ± 0.11	not by KCl stimulus	–	–	–	–
CN[C@H](CC(=O)O)C(=O)O [NMDA, N-methyl-D-aspartate]	–	–	unchanged	1.38 ± 0.07	1.58 ± 0.12	1.51 ± 0.13	68% ± 10	1.54 ± 0.12	1.85 ± 0.06
